In the NIST ThermoML archive (doi:10.1021/acs.jced.5b00978):
“And” between values parts separate entries of the source, which are not always exact repeats. Equal values may be shown once.

Key:
[1] = for Normal melting temperature: DTA
[2] = Molar enthalpy of transition or fusion; conditions: Crystal; DSC

COC(=O)c1ccc(C=O)cc1 [methyl 4-formylbenzoate]
[1]
Conditions	vapor or sublimation pressure [kPa]
303.1 K, Crystal, Closed cell (Static) method	0.00069
305.04 K, Crystal, Closed cell (Static) method	0.00086
307.04 K, Crystal, Closed cell (Static) method	0.00109
309.04 K, Crystal, Closed cell (Static) method	0.00137
311.05 K, Crystal, Closed cell (Static) method	0.00173
313.01 K, Crystal, Closed cell (Static) method	0.00216
314.99 K, Crystal, Closed cell (Static) method	0.00268
317.07 K, Crystal, Closed cell (Static) method	0.00335
319.02 K, Crystal, Closed cell (Static) method	0.00412
321.01 K, Crystal, Closed cell (Static) method	0.00511
323.02 K, Crystal, Closed cell (Static) method	0.00635
324.99 K, Crystal, Closed cell (Static) method	0.0078
326.93 K, Metastable liquid, Closed cell (Static) method	0.01165
326.97 K, Crystal, Closed cell (Static) method	0.00965
328.93 K, Metastable liquid, Closed cell (Static) method	0.01357
328.97 K, Crystal, Closed cell (Static) method	0.01165
330.9 K, Metastable liquid, Closed cell (Static) method	0.01573
330.92 K, Crystal, Closed cell (Static) method	0.01405
332.84 K, Metastable liquid, Closed cell (Static) method	0.01823
334.84 K, Metastable liquid, Closed cell (Static) method	0.02122
336.84 K, Closed cell (Static) method, Liquid	0.02458
338.85 K, Closed cell (Static) method, Liquid	0.02803
340.8 K, Closed cell (Static) method, Liquid	0.03252
342.76 K, Closed cell (Static) method, Liquid	0.0371
344.76 K, Closed cell (Static) method, Liquid	0.04283
346.67 K, Closed cell (Static) method, Liquid	0.04856
348.71 K, Closed cell (Static) method, Liquid	0.05584
350.65 K, Closed cell (Static) method, Liquid	0.06347
352.66 K, Closed cell (Static) method, Liquid	0.07223
354.52 K, Closed cell (Static) method, Liquid	0.08123
356.6 K, Closed cell (Static) method, Liquid	0.09314
358.58 K, Closed cell (Static) method, Liquid	0.1051
360.55 K, Closed cell (Static) method, Liquid	0.1182
362.49 K, Closed cell (Static) method, Liquid	0.1338
364.51 K, Closed cell (Static) method, Liquid	0.1519
366.47 K, Closed cell (Static) method, Liquid	0.1698
368.46 K, Closed cell (Static) method, Liquid	0.1902
370.41 K, Closed cell (Static) method, Liquid	0.2138
372.39 K, Closed cell (Static) method, Liquid	0.2395
374.28 K, Closed cell (Static) method, Liquid	0.2657
376.36 K, Closed cell (Static) method, Liquid	0.298
378.24 K, Closed cell (Static) method, Liquid	0.3306
380.3 K, Closed cell (Static) method, Liquid	0.3693
382.21 K, Closed cell (Static) method, Liquid	0.4085
384.22 K, Closed cell (Static) method, Liquid	0.4558
386.18 K, Closed cell (Static) method, Liquid	0.5028
388.17 K, Closed cell (Static) method, Liquid	0.562

Conditions	Normal melting temperature [°C]
[1], Crystal	62.1

Conditions	Molar enthalpy of transition or fusion [kcal/mol]
[2]	5.11

COC(=O)c1ccc(C#N)cc1 [methyl p-cyanobenzoate]
[1], Closed cell (Static) method
Conditions	vapor or sublimation pressure [kPa]
303.93 K, Crystal	0.00066
306.95 K, Crystal	0.00092
309.92 K, Crystal	0.0013
312.93 K, Crystal	0.00183
315.91 K, Crystal	0.00252
318.88 K, Crystal	0.00347
321.94 K, Crystal	0.00479
324.93 K, Crystal	0.00649
327.89 K, Crystal	0.00872
330.89 K, Crystal	0.01165
333.86 K, Crystal	0.01562
336.84 K, Crystal	0.02058
339.83 K, Liquid	0.02686
342.81 K, Liquid	0.0331
345.8 K, Liquid	0.04054
348.76 K, Liquid	0.04932
351.75 K, Liquid	0.06007
354.72 K, Liquid	0.07314
357.79 K, Liquid	0.08912
360.66 K, Liquid	0.1059
363.64 K, Liquid	0.1276
366.47 K, Liquid	0.1508
369.42 K, Liquid	0.1793
372.4 K, Liquid	0.2131
375.39 K, Liquid	0.2508
378.3 K, Liquid	0.2957
381.25 K, Liquid	0.3487
384.19 K, Liquid	0.4061
387.18 K, Liquid	0.4767
390.14 K, Liquid	0.5554
393.05 K, Liquid	0.644

Conditions	Normal melting temperature [°C]
[1], Crystal	65.1

Conditions	Molar enthalpy of transition or fusion [kcal/mol]
[2]	5.21

CNc1ccc(C(=O)OC)cc1 [methyl p-(methylamino)benzoate]
[1]
Conditions	vapor or sublimation pressure
317.09 K, Crystal, Calculated from knudsen effusion weight loss	7.8e-05 kPa
319.16 K, Crystal, Calculated from knudsen effusion weight loss	0.000101 kPa and 0.000103 kPa
321.19 K, Crystal, Calculated from knudsen effusion weight loss	0.000131 kPa and 0.00013 kPa
323.08 K, Crystal, Calculated from knudsen effusion weight loss	0.000167 kPa and 0.000165 kPa and 0.000168 kPa
325.15 K, Crystal, Calculated from knudsen effusion weight loss	0.000213 kPa and 0.000207 kPa and 0.000215 kPa
327.18 K, Crystal, Calculated from knudsen effusion weight loss	0.000263 kPa and 0.000266 kPa and 0.000271 kPa
329.12 K, Crystal, Calculated from knudsen effusion weight loss	0.000338 kPa and 0.000335 kPa and 0.000341 kPa
331.22 K, Crystal, Calculated from knudsen effusion weight loss	0.000427 kPa and 0.000425 kPa and 0.000433 kPa
332.9 K, Crystal, Closed cell (Static) method	0.00054 kPa
333.17 K, Crystal, Calculated from knudsen effusion weight loss	0.000537 kPa and 0.000535 kPa and 0.00054 kPa
334.88 K, Crystal, Closed cell (Static) method	0.00068 kPa
335.09 K, Crystal, Calculated from knudsen effusion weight loss	0.00068 kPa and 0.000688 kPa and 0.000691 kPa
336.87 K, Crystal, Closed cell (Static) method	0.00086 kPa
337.17 K, Crystal, Calculated from knudsen effusion weight loss	0.000869 kPa and 0.000862 kPa and 0.000855 kPa
338.87 K, Crystal, Closed cell (Static) method	0.00108 kPa
339.18 K, Crystal, Calculated from knudsen effusion weight loss	0.001064 kPa and 0.00106 kPa and 0.001061 kPa
340.85 K, Crystal, Closed cell (Static) method	0.00134 kPa
342.84 K, Crystal, Closed cell (Static) method	0.00167 kPa
344.81 K, Crystal, Closed cell (Static) method	0.00207 kPa
346.8 K, Crystal, Closed cell (Static) method	0.00257 kPa
348.77 K, Metastable liquid, Closed cell (Static) method	0.00482 kPa
348.79 K, Crystal, Closed cell (Static) method	0.00317 kPa
350.76 K, Metastable liquid, Closed cell (Static) method	0.0056 kPa
350.81 K, Crystal, Closed cell (Static) method	0.0039 kPa
352.75 K, Metastable liquid, Closed cell (Static) method	0.00655 kPa
352.76 K, Crystal, Closed cell (Static) method	0.00477 kPa
354.74 K, Crystal, Closed cell (Static) method	0.00575 kPa
354.74 K, Metastable liquid, Closed cell (Static) method	0.0076 kPa
356.72 K, Metastable liquid, Closed cell (Static) method	0.00876 kPa
356.73 K, Crystal, Closed cell (Static) method	0.00703 kPa
358.69 K, Metastable liquid, Closed cell (Static) method	0.01017 kPa
358.71 K, Crystal, Closed cell (Static) method	0.0085 kPa
360.67 K, Metastable liquid, Closed cell (Static) method	0.01173 kPa
360.69 K, Crystal, Closed cell (Static) method	0.01033 kPa
362.67 K, Metastable liquid, Closed cell (Static) method	0.01351 kPa
364.65 K, Metastable liquid, Closed cell (Static) method	0.01561 kPa
366.64 K, Metastable liquid, Closed cell (Static) method	0.01788 kPa
368.55 K, Closed cell (Static) method, Liquid	0.02015 kPa
370.6 K, Closed cell (Static) method, Liquid	0.02331 kPa
372.58 K, Closed cell (Static) method, Liquid	0.02669 kPa
374.55 K, Closed cell (Static) method, Liquid	0.03049 kPa
376.53 K, Closed cell (Static) method, Liquid	0.03459 kPa
378.5 K, Closed cell (Static) method, Liquid	0.03935 kPa
380.51 K, Closed cell (Static) method, Liquid	0.04446 kPa
382.47 K, Closed cell (Static) method, Liquid	0.05044 kPa
384.46 K, Closed cell (Static) method, Liquid	0.05682 kPa
386.45 K, Closed cell (Static) method, Liquid	0.06435 kPa
388.41 K, Closed cell (Static) method, Liquid	0.07241 kPa
390.4 K, Closed cell (Static) method, Liquid	0.0815 kPa
392.35 K, Closed cell (Static) method, Liquid	0.09154 kPa

Conditions	Normal melting temperature [°C]
[1], Crystal	93

Conditions	Molar enthalpy of transition or fusion [kcal/mol]
[2]	6.57

COC(=O)c1ccc([N+](=O)[O-])cc1 [methyl p-nitrobenzoate]
[1]
Conditions	vapor or sublimation pressure [kPa]
319.01 K, Crystal, Closed cell (Static) method	0.00074
321.07 K, Crystal, Closed cell (Static) method	0.00092
322.98 K, Crystal, Closed cell (Static) method	0.00115
325.03 K, Crystal, Closed cell (Static) method	0.00144
326.97 K, Crystal, Closed cell (Static) method	0.00177
328.99 K, Crystal, Closed cell (Static) method	0.0022
330.91 K, Crystal, Closed cell (Static) method	0.00265
332.94 K, Crystal, Closed cell (Static) method	0.00333
334.86 K, Crystal, Closed cell (Static) method	0.00404
336.9 K, Crystal, Closed cell (Static) method	0.00497
338.83 K, Crystal, Closed cell (Static) method	0.00597
340.86 K, Crystal, Closed cell (Static) method	0.00734
342.77 K, Crystal, Closed cell (Static) method	0.00878
344.81 K, Crystal, Closed cell (Static) method	0.01073
346.71 K, Crystal, Closed cell (Static) method	0.01286
348.76 K, Crystal, Closed cell (Static) method	0.01564
350.59 K, Crystal, Closed cell (Static) method	0.01843
352.71 K, Crystal, Closed cell (Static) method	0.02255
354.57 K, Crystal, Closed cell (Static) method	0.02656
356.66 K, Crystal, Closed cell (Static) method	0.03213
358.51 K, Crystal, Closed cell (Static) method	0.03767
360.47 K, Metastable liquid, Closed cell (Static) method	0.05433
360.61 K, Crystal, Closed cell (Static) method	0.04542
362.46 K, Metastable liquid, Closed cell (Static) method	0.0615
362.47 K, Crystal, Closed cell (Static) method	0.05331
364.43 K, Metastable liquid, Closed cell (Static) method	0.06971
364.55 K, Crystal, Closed cell (Static) method	0.06362
370.48 K, Closed cell (Static) method, Liquid	0.1019
372.46 K, Closed cell (Static) method, Liquid	0.1149
374.39 K, Closed cell (Static) method, Liquid	0.1281
376.4 K, Closed cell (Static) method, Liquid	0.1446
378.37 K, Closed cell (Static) method, Liquid	0.1615
380.36 K, Closed cell (Static) method, Liquid	0.1809
382.3 K, Closed cell (Static) method, Liquid	0.2008
384.27 K, Closed cell (Static) method, Liquid	0.2241
386.24 K, Closed cell (Static) method, Liquid	0.2502
388.24 K, Closed cell (Static) method, Liquid	0.2792
390.19 K, Closed cell (Static) method, Liquid	0.3091
392.19 K, Closed cell (Static) method, Liquid	0.3449
394.11 K, Closed cell (Static) method, Liquid	0.3796
396.19 K, Closed cell (Static) method, Liquid	0.4248
398.07 K, Closed cell (Static) method, Liquid	0.4655
400.05 K, Closed cell (Static) method, Liquid	0.5141
401.96 K, Closed cell (Static) method, Liquid	0.5665
403.96 K, Closed cell (Static) method, Liquid	0.6244
405.95 K, Closed cell (Static) method, Liquid	0.6894
407.87 K, Closed cell (Static) method, Liquid	0.7541
409.86 K, Closed cell (Static) method, Liquid	0.8302
411.81 K, Closed cell (Static) method, Liquid	0.9078
413.78 K, Closed cell (Static) method, Liquid	0.9952
415.75 K, Closed cell (Static) method, Liquid	1.088

Conditions	Normal melting temperature [°C]
[1], Crystal	96.2

Conditions	Molar enthalpy of transition or fusion [kcal/mol]
[2]	5.83
